Experiments:
[1] = target: T1, human recombinant dopamine transport binding sites (Homo sapiens, UniProt Q01959); test: Radioligand binding, dopamine transporter; conditions: 10^−9 to 10^−5 M
T1 construct: purchased Novascreen, Hanover, Md

[2] = system: Sprague Dawley rats; test: Single-dose oral toxicity; format: in vivo; conditions: rat; for Observable signs: single oral dose
Protocol: Three male and three female Sprague Dawley rats per group were given a single oral administration of L-lysine-d-amphetamine at 0.1, 1.0, 10, 60, 100 or 1000 mg/kg (Table 44).
Animals found dead, or sacrificed moribund were necropsied and discarded. A total of one animal/sex/group was necropsied upon scheduled or unscheduled death.

[3] = Kitchen tests: release of amphetamine by water, acid, base and heat; conditions: heated to boiling for 20-60 minutes
[4] = Intranasal bioavailability in rats, plasma d-amphetamine by ELISA; conditions: rat, 3 mg/kg
[5] = target: T2, human recombinant norepinephrine transport binding sites (Homo sapiens, UniProt P23975); test: Radioligand binding, norepinephrine transporter; conditions: 10^−9 to 10^−5 M
T2 construct: purchased Novascreen, Hanover, Md
T2 sequence (P23975 whole entry): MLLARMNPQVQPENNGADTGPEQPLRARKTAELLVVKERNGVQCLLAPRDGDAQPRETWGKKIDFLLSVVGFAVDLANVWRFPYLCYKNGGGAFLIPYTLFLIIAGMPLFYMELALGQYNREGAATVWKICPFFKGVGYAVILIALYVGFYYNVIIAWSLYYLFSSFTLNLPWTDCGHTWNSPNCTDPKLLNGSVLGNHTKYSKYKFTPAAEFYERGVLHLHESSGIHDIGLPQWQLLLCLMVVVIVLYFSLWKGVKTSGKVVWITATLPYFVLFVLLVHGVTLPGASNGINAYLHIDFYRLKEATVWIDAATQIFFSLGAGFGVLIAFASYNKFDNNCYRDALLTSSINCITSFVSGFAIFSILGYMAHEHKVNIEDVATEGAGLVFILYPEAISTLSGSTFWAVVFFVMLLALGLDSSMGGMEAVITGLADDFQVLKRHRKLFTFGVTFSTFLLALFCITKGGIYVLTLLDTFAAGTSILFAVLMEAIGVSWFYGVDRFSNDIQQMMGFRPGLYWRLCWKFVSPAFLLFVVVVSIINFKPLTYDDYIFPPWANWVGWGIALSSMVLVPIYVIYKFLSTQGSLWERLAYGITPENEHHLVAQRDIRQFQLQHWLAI

T1 sequence (Q01959 whole entry): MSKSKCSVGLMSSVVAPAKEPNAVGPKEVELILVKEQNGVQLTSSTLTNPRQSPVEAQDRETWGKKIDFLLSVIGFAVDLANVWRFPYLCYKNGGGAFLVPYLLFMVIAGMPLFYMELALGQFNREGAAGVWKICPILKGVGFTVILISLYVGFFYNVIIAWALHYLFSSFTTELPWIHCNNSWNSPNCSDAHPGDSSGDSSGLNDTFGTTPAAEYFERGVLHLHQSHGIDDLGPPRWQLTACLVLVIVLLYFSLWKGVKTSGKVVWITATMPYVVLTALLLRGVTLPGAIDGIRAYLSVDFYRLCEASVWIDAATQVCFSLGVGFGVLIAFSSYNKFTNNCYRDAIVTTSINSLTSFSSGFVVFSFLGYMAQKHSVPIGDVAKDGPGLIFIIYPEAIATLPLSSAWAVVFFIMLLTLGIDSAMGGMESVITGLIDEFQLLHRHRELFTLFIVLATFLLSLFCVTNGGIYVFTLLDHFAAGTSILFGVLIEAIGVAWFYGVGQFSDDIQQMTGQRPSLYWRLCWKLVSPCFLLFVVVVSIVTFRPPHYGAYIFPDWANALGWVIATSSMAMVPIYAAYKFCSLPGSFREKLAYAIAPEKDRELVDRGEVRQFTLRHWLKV

For `CC(Cc1ccccc1)NC(=O)C(N)CCCCN` [L-lysine-d-amphetamine, 2,6-diaminohexanoic acid-(1-methyl-2-phenylethyl)-amide], the Specific binding [1] was “did not bind”, the Deaths ([2]; single oral 1000 mg/kg, 7 days) was “only one death occurred out of a group of six animals” and the Observable signs ([2]; Groups 1-3 (doses 0.1 to 1000 mg/kg in six groups)) was “no observable signs”. For the same molecule, the Observable signs ([2]; Groups 4-6 (doses 0.1 to 1000 mg/kg in six groups)) was “increased motor activity within two hours post-dose”, the “amphetamine detected after treatment: Baking Powder” value [3] was 0% and the “amphetamine detected after treatment: Baking Soda” value [3] was 0%. For the same molecule, the “amphetamine detected after treatment: Tap Water” value [3] was 0%, the “amphetamine detected after treatment: Vinegar” value [3] was 0% and the “Release of d-amphetamine into circulation” value [4] was “did not release any significant amount of d-amphetamine”. For the same molecule, the Specific binding [5] was “did not bind”.
